Measurements from ChEMBL document CHEMBL1201862, “PubChem BioAssay data set” (2004).
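Each compound was tested at five concentrations against cells in 96-well plates for 48 hours. GI50: concentration for 50% inhibition of growth.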 The source made the active and inactive calls. No stated cut-off is given here; in the data, active = GI50 up to about 1.1 µM and inactive = higher.

Tests used:
Experiment in all cases: NCI-60 cell line screen, 48 h
UO-31 = tested on: UO-31
MDA-MB-231 = tested on: MDA-MB-231
SF-268 = tested on: SF-268
HOP-62 = tested on: HOP-62
HCC 2998 = tested on: HCC 2998
HCT-15 = tested on: HCT-15
SNB-19 = tested on: SNB-19
Malme-3M = tested on: Malme-3M
MCF7 = tested on: MCF7
T47D = tested on: T47D
SK-OV-3 = tested on: SK-OV-3
SW-620 = tested on: SW-620
SK-MEL-2 = tested on: SK-MEL-2
OVCAR-3 = tested on: OVCAR-3
IGROV-1 = tested on: IGROV-1
HT-29 = tested on: HT-29
SK-MEL-28 = tested on: SK-MEL-28
786-0 = tested on: 786-0
MOLT-4 = tested on: MOLT-4

`Nc1nc(SCc2ccccn2)c2ncn(C3CCCC3)c2n1` was tested, and the GI50 (UO-31) was 15 µM (inactive), the GI50 (MDA-MB-231) was > 100 µM (inactive) and the GI50 (SF-268) was 70.5 µM (inactive). For the same compound, the GI50 (HOP-62) was > 100 µM (inactive), the GI50 (HCC 2998) was > 100 µM (inactive) and the GI50 (HCT-15) was > 100 µM. The GI50 (SNB-19) was > 100 µM (inactive), the GI50 (Malme-3M) was 82 µM (inactive) and the GI50 (MCF7) was > 100 µM (inactive). For the same compound, the GI50 (T47D) was 76 µM (inactive), the GI50 (SK-OV-3) was > 100 µM (inactive) and the GI50 (SW-620) was > 100 µM (inactive). The GI50 (SK-MEL-2) was > 100 µM (inactive), the GI50 (OVCAR-3) was > 100 µM (inactive) and the GI50 (IGROV-1) was > 100 µM (inactive). The GI50 (HT-29) was > 100 µM (inactive), the GI50 (SK-MEL-28) was > 100 µM (inactive) and the GI50 (786-0) was > 100 µM (inactive).
With `COc1ccc(C2=CC(c3ccc4c(c3)OCO4)c3c(c4ccccc4oc3=O)O2)cc1OC` (stereo not drawn) the GI50 (UO-31) was 2.55 µM (inactive), the GI50 (MDA-MB-231) was 4.02 µM (inactive) and the GI50 (SF-268) was 5.07 µM (inactive). For the same compound, the GI50 (MOLT-4) was 3.42 µM (inactive), the GI50 (HOP-62) was 1.44 µM (inactive) and the GI50 (HCC 2998) was 1.46 µM (inactive). The GI50 (HCT-15) was 0.546 µM, the GI50 (SNB-19) was 2.53 µM (inactive) and the GI50 (Malme-3M) was > 81.8 µM (inactive). For the same compound, the GI50 (MCF7) was 0.454 µM (active), the GI50 (T47D) was 0.685 µM (active) and the GI50 (SK-OV-3) was 0.859 µM (active). The GI50 (SW-620) was 0.933 µM (active), the GI50 (IGROV-1) was 0.743 µM (active) and the GI50 (HT-29) was 0.536 µM (active). For the same compound, the GI50 (SK-MEL-28) was > 55.2 µM (inactive) and the GI50 (786-0) was 1.13 µM (inactive).
With `C[N+](C)(C)CC1CCCc2ccccc2C1=O` (stereo not drawn) the GI50 (UO-31) was 16.9 µM (inactive), the GI50 (MDA-MB-231) was 16.3 µM (inactive) and the GI50 (SF-268) was 22 µM (inactive). The GI50 (MOLT-4) was 2.48 µM (inactive), the GI50 (HOP-62) was 18.8 µM (inactive) and the GI50 (HCC 2998) was 20.6 µM (inactive). For the same compound, the GI50 (HCT-15) was 5.98 µM, the GI50 (SNB-19) was 29 µM (inactive) and the GI50 (Malme-3M) was 5.79 µM (inactive). The GI50 (MCF7) was 2.04 µM (inactive), the GI50 (T47D) was 1.73 µM (inactive) and the GI50 (SK-OV-3) was 20.3 µM (inactive). For the same compound, the GI50 (SW-620) was 2.04 µM (inactive), the GI50 (SK-MEL-2) was 10.5 µM (inactive) and the GI50 (OVCAR-3) was 7.26 µM (inactive). For the same compound, the GI50 (IGROV-1) was 16.6 µM (inactive), the GI50 (SK-MEL-28) was 18.2 µM (inactive) and the GI50 (786-0) was 2.44 µM (inactive).
For `N#C/C=C(/NC(=O)Nc1ccccc1)N1CCCC1`, the GI50 (UO-31) was > 89.3 µM (inactive), the GI50 (MDA-MB-231) was > 55.8 µM (inactive) and the GI50 (SF-268) was > 32.3 µM (inactive). The GI50 (MOLT-4) was > 100 µM (inactive), the GI50 (HCC 2998) was > 30.3 µM (inactive) and the GI50 (HCT-15) was > 56.2 µM. For the same compound, the GI50 (SNB-19) was > 25.2 µM (inactive), the GI50 (Malme-3M) was > 45 µM (inactive) and the GI50 (MCF7) was > 33.1 µM (inactive). The GI50 (T47D) was > 85.1 µM (inactive), the GI50 (SK-OV-3) was > 100 µM (inactive) and the GI50 (SW-620) was > 44.2 µM (inactive). For the same compound, the GI50 (SK-MEL-2) was > 32.9 µM (inactive), the GI50 (OVCAR-3) was > 100 µM (inactive) and the GI50 (IGROV-1) was > 55.8 µM (inactive). The GI50 (HT-29) was > 72.6 µM (inactive), the GI50 (SK-MEL-28) was > 47.9 µM (inactive) and the GI50 (786-0) was 31.9 µM (inactive).
For `COc1cc(NCc2ccc3nc(-c4ccccc4)c(N)nc3c2)cc(OC)c1OC`, the GI50 (UO-31) was 29.2 µM (inactive), the GI50 (MDA-MB-231) was 36 µM (inactive) and the GI50 (SF-268) was 34.8 µM (inactive). The GI50 (MOLT-4) was 23.3 µM (inactive), the GI50 (HOP-62) was 43.8 µM (inactive) and the GI50 (HCC 2998) was 51.8 µM (inactive). The GI50 (HCT-15) was 28.7 µM, the GI50 (SNB-19) was 46.2 µM (inactive) and the GI50 (Malme-3M) was 24.9 µM (inactive). The GI50 (MCF7) was 28.5 µM (inactive), the GI50 (T47D) was 25.9 µM (inactive) and the GI50 (SK-OV-3) was 42.3 µM (inactive). The GI50 (SW-620) was 48.5 µM (inactive), the GI50 (SK-MEL-2) was 31 µM (inactive) and the GI50 (OVCAR-3) was 25.6 µM (inactive). For the same compound, the GI50 (IGROV-1) was 43.6 µM (inactive), the GI50 (HT-29) was 32.9 µM (inactive) and the GI50 (SK-MEL-28) was 27.4 µM (inactive). The GI50 (786-0) was 35.6 µM (inactive).
`CCOC(=O)n1c(=O)nc2c3c(ncn21)Oc1c(c(-c2ccccc2)nn1-c1ccccc1)C3c1ccc(Cl)cc1` (stereo not drawn) was tested, and the GI50 (UO-31) was 1.49 µM (inactive), the GI50 (MDA-MB-231) was 1.4 µM (inactive) and the GI50 (SF-268) was 1.58 µM (inactive). The GI50 (HOP-62) was 1.77 µM (inactive), the GI50 (HCC 2998) was 0.631 µM (active) and the GI50 (HCT-15) was 1.18 µM. For the same compound, the GI50 (SNB-19) was 1.61 µM (inactive), the GI50 (Malme-3M) was 1.84 µM (inactive) and the GI50 (MCF7) was 1.56 µM (inactive). The GI50 (T47D) was 1.77 µM (inactive), the GI50 (SK-OV-3) was 2.86 µM (inactive) and the GI50 (SW-620) was 1.71 µM (inactive). For the same compound, the GI50 (SK-MEL-2) was 1.84 µM (inactive), the GI50 (OVCAR-3) was 1.48 µM (inactive) and the GI50 (HT-29) was 1.75 µM (inactive). The GI50 (SK-MEL-28) was 1.79 µM (inactive) and the GI50 (786-0) was 1.52 µM (inactive).
In the case of `COc1ccc2c3c1OC1C(OC)(OC)CC4(C=C2)CN(C)CCC314` (stereo not drawn), the GI50 (UO-31) is reported as > 100 µM (inactive), the GI50 (MDA-MB-231) is reported as > 100 µM (inactive) and the GI50 (SF-268) is reported as > 100 µM (inactive). The GI50 (MOLT-4) was > 100 µM (inactive), the GI50 (HOP-62) was > 100 µM (inactive) and the GI50 (HCC 2998) was > 100 µM (inactive). The GI50 (HCT-15) was > 100 µM, the GI50 (SNB-19) was > 100 µM (inactive) and the GI50 (Malme-3M) was > 100 µM (inactive). The GI50 (MCF7) was > 100 µM (inactive), the GI50 (T47D) was > 100 µM (inactive) and the GI50 (SK-OV-3) was > 100 µM (inactive). The GI50 (SW-620) was > 100 µM (inactive), the GI50 (OVCAR-3) was > 100 µM (inactive) and the GI50 (IGROV-1) was > 100 µM (inactive). For the same compound, the GI50 (HT-29) was > 100 µM (inactive), the GI50 (SK-MEL-28) was > 100 µM (inactive) and the GI50 (786-0) was > 100 µM (inactive).
`O=C1c2ccccc2NC(c2cc(Cl)cc(Cl)c2O)N1CCc1ccccn1` (stereo not drawn) was tested, and the GI50 (UO-31) was > 100 µM (inactive), the GI50 (MDA-MB-231) was > 100 µM (inactive) and the GI50 (SF-268) was > 100 µM (inactive). For the same compound, the GI50 (HOP-62) was > 100 µM (inactive), the GI50 (HCC 2998) was 53.2 µM (inactive) and the GI50 (HCT-15) was 86.3 µM. For the same compound, the GI50 (SNB-19) was 88.9 µM (inactive), the GI50 (Malme-3M) was 30.8 µM (inactive) and the GI50 (MCF7) was 61 µM (inactive). The GI50 (T47D) was 26.7 µM (inactive), the GI50 (SK-OV-3) was > 100 µM (inactive) and the GI50 (SW-620) was 76.7 µM (inactive). The GI50 (SK-MEL-2) was > 100 µM (inactive), the GI50 (OVCAR-3) was > 100 µM (inactive) and the GI50 (IGROV-1) was > 100 µM (inactive). The GI50 (HT-29) was 80.9 µM (inactive), the GI50 (SK-MEL-28) was > 100 µM (inactive) and the GI50 (786-0) was 60.1 µM (inactive).
